Assay results: US10973863B2, “Method for regulating, preventing and/or treating pulmonary injury” (SINPHAR PHARMACEUTICAL CO., LTD., priority 2017, dated 2021)

Experiments:
[1] = system: TGFβ-induced intracellular accumulation of collagen in myofibroblast WI38 cells; assay: Picrosirius red staining: TGFβ-induced collagen accumulation in WI38 cells; format: cell-based; settings: Table 7, 1 ng/mL TGF-β, 24 hours
From the text: As indicated above, the hyperactive expression of MMPs will cause pulmonary injury. Under the most circumstances, the response mechanisms in animals will activate, for example, macrophages will secret TGF-β and TGF-β which can promote the lung fibroblasts to secret collagen, so that the damaged tissues can be recovered. However, the hypersecretion of collagen will also lead to lung fibrosis. To investigate whether FU-LING extracts and its active ingredients are effective in regulating, protecting and/or treating the pulmonary injury-related diseases such as lung fibrosis or not, the Picrosirius red (PSR) staining was conducted as a semi-quantification of collagen, so that the inhibitory rate of FU-LING extract and its active ingredients on the TGFβ-induced intracellular accumulation of collagen in myofibroblast WI38 cells can be determined.
Myofibroblast WI38 cells (purchased from ATCC, product no. CCL75™) were divided into ten groups and separately cultivated with the following media for 48 hours:
(1) Blank group: a myolibroblast growth medium;
(2) Control group: a myofibroblast growth medium containing 1 ng/mL TGF-β (purchased from R&D system);
(3) Positive control group: a myofibroblast growth medium containing 1 ng/mL TGF-β and 200 μg/mL Pirfenidone (abbreviated as “Pir”; purchased from Sigma-Aldrich);
(4) Extract A (including four sub-groups): a myofibroblast growth medium containing 1 ng/mL TGF-β and the extract A provided by [Preparation example A-2-2], wherein the extract A is present in the four sub-groups at a concentration of 12.5, 25, 50 and 100 μg/mL respectively; and
(5) Extract B (including three sub-groups): a myofibroblast growth medium containing 1 ng/ml, TGF-β and the extract B provided by [Preparation example A-2-3], wherein the extract B is present in the […] at a concentration of 12.5, 25 and 50 μg/mL respectively.
Thereafter, the media were replaced by methanol to fix the cells at a temperature of −20° C. for 1 to 2 hours. After that, the cells were washed with PBS, and then stained with 0.1% PSR staining agent (purchased from Sigma-Aldrich) at room temperature for 4 hours. The stained cells were washed with 0.1% acetic acid, and then lysed with 0.1N sodium hydroxide to provide a lysate. The OD540 (i.e., the absorbance at a wavelength of 540 nm) of the lysate was measured. OD540 value of each group represents the content of collagen in each group, reflecting the content of collagen in fibroblast WI38 cells under different circumstances (the relative content of collagen in each group was calculated by serving the result of blank group as 0% and serving the result of control group as 100%).
Myofibroblast WI38 cells were divided into twenty-eight groups and separately cultivated with the following media for 24 hours:
(1) Blank group: a myofibroblast growth medium;
(3) Positive control group; a myofibroblast growth medium containing 1 ng/mL TGF-β and 200 μg/mL Pirfenidone (abbreviated as “Pir”; purchased from Sigma-Aldrich);
(4) Extract C group (including five sub-groups): a myofibroblast growth medium containing 1 ng/mL TGF-β and the extract C provided by [preparation example A-3-2], wherein the extract C is present in the five sub-groups at a concentration of […], 6.25 and 12.5 μg/mL respectively;
(5) Extract D group (including five sub-groups): a myofibroblast growth medium containing 1 ng/mL TGF-β and the extract D provided by [preparation example A-4-2], wherein the extract D is present in the five sub-groups at a concentration of 0.78, 1.56, 3.13, 6.25 and 12.5 μg/mL respectively;
(6) Extract E group (including five sub-groups): a myofibroblast growth medium containing 1 ng/mL TGF-β and the extract E provided by [preparation example A-4-3], wherein the extract E is present in the five sub-groups at a concentration of 0.78, 1.56, 3.13, 6.25 and 12.5 μg/mL respectively; […]

active-form MMP-9 = assay: Western blot: active-form MMP-9 expression in LPS-treated NR8383 cells; format: cell-based, rat; settings: 0.01 μg/mL LPS; 6.25, 12.5, 25 and 50 μg/mL; 24 hours
Description: (§1) Rat alveolar macrophage NR8383 cells were divided into six groups and separately cultivated with the following media for 24 hours: • (1) Control group: a macrophage growth medium containing 0.01 μg/mL LPS; • (2) Positive control group: a macrophage growth medium containing 0.01 μg/mL LPS and 1 μM Dex; and • (3) Extract A group (including four sub-groups): a macrophage growth medium containing 0.01 μg/mL LPS and the extract A provided by [preparation example A-2-2], wherein the extract A is present in the four sub-groups at a concentration of 6.25, 12.5, 25 and 50 μg/mL respectively.
(§2) Thereafter, the proteins in the cells of each group were extracted and then subjected to a Western blot to measure the expression level of pro-form MMP-9 (i.e., the zymogen form of MMP-9), active-form MMP-9 and MMP-12. The relative expression level of pro-form MMP-9, active-form MMP-9 and MMP-12 of each group was calculated by using the results of the control group as a basis (i.e., the expression level of control group was served as 1-fold).
(§3) Rat alveolar macrophage NR8383 cells were divided into ten groups and separately cultivated with the following media for 24 hours:
(§4) (1) Control group: a macrophage growth medium containing 0.01 μg/mL LPS;
(§5) (2) Positive control group: a macrophage growth medium containing 0.01 μg/mL LPS and 1 μM Dex; […]

MMP-12 = assay: Western blot: MMP-12 expression in LPS-treated NR8383 cells; format: cell-based, rat; settings: 0.01 μg/mL LPS; 6.25 to 50 μg/mL; 24 hours
Description: as §1, §2, §3, §4, §5

pro-form MMP-9 = assay: Western blot: pro-form MMP-9 expression in LPS-treated NR8383 cells; format: cell-based, rat; settings: 0.01 μg/mL LPS; 6.25 to 50 μg/mL; 24 hours
Description: as §1, §2, §3, §4, §5

For `C=C(CC[C@@H](C(=O)O)[C@H]1[C@H](O)C[C@@]2(C)C3=CC[C@@H](C(=C)C)[C@](C)(CCC(=O)O)C3=CC[C@]12C)C(C)C` [PAA, poricoic acid A], the “Relative content of collagen (%)” value ([1]; 6.25 μg/mL) was 82%, the “Relative content of collagen (%)” value ([1]; 12.5 μg/mL) was 78% and the “Relative content of collagen (%)” value ([1]; 25 μg/mL) was 48%. The “Relative content of collagen (%)” value ([1]; 50 μg/mL) was 0%, the “Relative content of collagen (%)” value ([1]; 100 μg/mL) was 0% and the “Inhibitory rate on active-form MMP-9 (highest over tested concentrations)” value (active-form MMP-9) was “up to 44%”. The “Expression level of MMP-12 (in words)” value (MMP-12) was “effective in inhibiting” and the “Expression level of pro-form MMP-9 in comparison with the control group (in words)” value (pro-form MMP-9) was “effective in inhibiting”.
